Results taken from US9409870B2, “Compounds” (CHIESI FARMACEUTICI S.p.A., priority 2014, dated 2016).

Molecular target: T1, human neutrophil elastase (HNE) (Homo sapiens, UniProt P08246)
T1 construct: purchased Sigma E8140
T1 sequence (P08246 30-247 limits assumed): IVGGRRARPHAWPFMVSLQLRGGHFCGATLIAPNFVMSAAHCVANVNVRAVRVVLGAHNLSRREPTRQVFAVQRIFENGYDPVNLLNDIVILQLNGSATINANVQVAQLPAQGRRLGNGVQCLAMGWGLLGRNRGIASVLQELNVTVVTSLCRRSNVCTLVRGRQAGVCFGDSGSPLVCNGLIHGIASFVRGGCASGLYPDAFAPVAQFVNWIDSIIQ
Test: HNE enzyme activity assay (fluorogenic peptide substrate MeOSuc-Ala-Ala-Pro-Val-AMC)
Format: biochemical
Settings: human leukocyte elastase 0.00072 U/mL, substrate 100 μM, 25° C., 30 minutes, pH 7.5; at least two separate experiments; read-out: FINE inhibition (HNE enzyme inhibition, IC50 values)
Method: Compounds of this invention were tested for potency in a human neutrophil elastase (HNE) enzyme activity assay.
Assays were performed in 96-well plates in a total assay volume of 100 μL. The final concentration of elastase enzyme (human leukocyte elastase, Sigma E8140) was 0.00072 U/mL. The peptide substrate (MeOSuc-Ala-Ala-Pro-Val-AMC, Calbiochem #324740) was used at a final concentration of 100 μM. The final concentration of DMSO was 1% in the assay buffer (0.05M Tris.HCl, 0.1M NaCl, 0.1M CaCl2, 0.0005% brij-35, pH 7.5). The enzymatic reaction was started by addition of the enzyme and incubated at 25° C. for 30 minutes. After incubation, the reaction was stopped by addition of soybean trypsin inhibitor (Sigma T9003) at a final concentration of 50 μg/well. Fluorescence was measured using a Molecular Devices fluorescence plate reader using 380 nm excitation and 460 nm emission wavelengths.
A dose response to each compound was performed and the effect of compound in each experiment was expressed as a percentage inhibition of the control enzyme fluorescence. Dose response curves were plotted and compound potency (IC50) was determined. Compounds were tested in at least two separate experiments.

**Q.** `Cc1c(-c2nccn2-c2ccc(C#N)cc2)n(C(=O)NC2CCC2)c(=O)n1-c1cccc(C(F)(F)F)c1` [Example 61, 1-(4-Cyano-phenyl)-5′-methyl-2′-oxo-1′-(3-trifluoromethyl-phenyl)-1′,2′-dihydro-1H-[2,4′]biimidazolyl-3′-carboxylic acid cyclobutylamide] was tested. Which IC50 did it give?
**A.** Its IC50 is < 1 nM.

**Q.** How did the IC50 turn out when `CCOC(=O)n1c(-c2ccnn2-c2ccc(C#N)cc2)c(C)n(-c2cccc(C(F)(F)F)c2)c1=O` [Example 4, Ethyl-5-[1-(4-cyanophenyl)-1H-pyrazol-5-yl]-4-methyl-2-oxo-3-[3-(trifluoromethyl)phenyl]-2,3-dihydro-1H-imidazole-1-carboxylate] was run?
**A.** The IC50 was < 1 nM.

**Q.** How did the IC50 turn out when `Cc1c(-c2nccn2-c2ccc(C#N)cc2)n(C(=O)NC2CCCC2)c(=O)n1-c1cccc(C(F)(F)F)c1` [Example 60, 1-(4-Cyano-phenyl)-5′-methyl-2′-oxo-1′-(3-trifluoromethyl-phenyl)-1′,2′-dihydro-1H-[2,4]biimidazolyl-3′-carboxylic acid cyclopentylamide] was run?
**A.** The IC50 was < 1 nM.

**Q.** Which IC50 does the source give for `Cc1c(-c2ccnn2-c2ccc(C#N)cc2)n(C(=O)NC2CCC2)c(=O)n1-c1cccc(C(F)(F)F)c1` [Example 41, 5-[2-(4-Cyano-phenyl)-2H-pyrazol-3-yl]-4-methyl-2-oxo-3-(3-trifluoromethyl-phenyl)-2,3-dihydro-imidazole-1-carboxylic acid cyclobutylamide] here?
**A.** Its IC50 is < 1 nM.

**Q.** `Cc1c(-c2ccnn2-c2ccc(C#N)cc2)n(C(=O)NCCO)c(=O)n1-c1cccc(C(F)(F)F)c1` [Example 7, 5-[1-(4-Cyanophenyl)-1H-pyrazol-5-yl]-N-(2-hydroxyethyl)-4-methyl-2-oxo-3-[3-(trifluoromethyl)phenyl]-2,3-dihydro-1H-imidazole-1-carboxamide] was tested. Which IC50 did it give?
**A.** Its IC50 is 1 to 10 nM.

**Q.** With `Cc1c(-c2ccnn2-c2ccc(C#N)cc2)n(C)c(=O)n1-c1cccc(C(F)(F)F)c1` [Example 3, 4-(5-{3,5-Dimethyl-2-oxo-1-[3-(trifluoromethyl)phenyl]-2,3-dihydro-1H-imidazol-4-yl}-1H-pyrazol-1-yl)benzonitrile] as the compound, how does the IC50 read?
**A.** The IC50 was 1 to 10 nM.

**Q.** With `Cc1c(-c2ccnn2-c2ccc(C#N)cc2)n(S(=O)(=O)C2CC2)c(=O)n1-c1cccc(C(F)(F)F)c1` [Example 32, 4-{5-[3-Cyclopropanesulfonyl-5-methyl-2-oxo-1-(3-trifluoromethyl-phenyl)-2,3-dihydro-1H-imidazol-4-yl]-pyrazol-1-yl}-benzonitrile] as the compound, how does the IC50 read?
**A.** Its IC50 is < 1 nM.

**Q.** With `Cc1c(-c2ccnn2-c2ccc(C#N)cc2)n(C(=O)NCc2ccncc2)c(=O)n1-c1cccc(C(F)(F)F)c1` [Example 51, 5-[2-(4-Cyano-phenyl)-2H-pyrazol-3-yl]-4-methyl-2-oxo-3-(3-trifluoromethyl-phenyl)-2,3-dihydro-imidazole-1-carboxylic acid (pyridin-4-ylmethyl)-amide] as the compound, how does the IC50 read?
**A.** The IC50 was < 1 nM.

**Q.** For `Cc1c(-c2ccnn2-c2ccc(C#N)cc2)n(S(C)(=O)=O)c(=O)n1-c1cccc(C(F)(F)F)c1` [Example 27, 4-(5-{5-Methyl-3-(methylsulfonyl)-2-oxo-1-[3-(trifluoromethyl)phenyl]-2,3-dihydro-1H-imidazol-4-yl}-1H-pyrazol-1-yl)benzonitrile], which IC50 is on record?
**A.** The IC50 was < 1 nM.

**Q.** For `CC(=O)n1c(-c2ccnn2-c2ccc(C#N)cc2)c(C)n(-c2cccc(C(F)(F)F)c2)c1=O` [Example 5, 4-(5-{3-Acetyl-5-methyl-2-oxo-1-[3-(trifluoromethyl)phenyl]-2,3-dihydro-1H-imidazol-4-yl}-1H-pyrazol-1-yl)benzonitrile], which IC50 is on record?
**A.** The IC50 was 1 to 10 nM.

**Q.** For `Cc1c(-c2ccnn2-c2ccc(C#N)cc2)n(C(=O)N[C@@H]2CCN(C)C2)c(=O)n1-c1cccc(C(F)(F)F)c1` [Example 46, 5-[2-(4-Cyano-phenyl)-2H-pyrazol-3-yl]-4-methyl-2-oxo-3-(3-trifluoromethyl-phenyl)-2,3-dihydro-imidazole-1-carboxylic acid ((R)-1-methyl-pyrrolidin-3-yl)-amide], which IC50 is on record?
**A.** The IC50 was < 1 nM.

**Q.** Which IC50 does the source give for `Cc1c(-c2ccnn2-c2ccc(C#N)cc2)n(S(=O)(=O)NC2CC2)c(=O)n1-c1cccc(C(F)(F)F)c1` [Example 35, 5-[2-(4-Cyano-phenyl)-2H-pyrazol-3-yl]-4-methyl-2-oxo-3-(3-trifluoromethylphenyl)-2,3-dihydro-imidazole-1-sulfonic acid cyclopropylamide] here?
**A.** Its IC50 is 1 to 10 nM.

**Q.** How did the IC50 turn out when `Cc1c(-c2ccnn2-c2ccc(C#N)cc2)n(C(=O)NCc2cnccn2)c(=O)n1-c1cccc(C(F)(F)F)c1` [Example 52, 5-[2-(4-Cyano-phenyl)-2H-pyrazol-3-yl]-4-methyl-2-oxo-3-(3-trifluoromethyl-phenyl)-2,3-dihydro-imidazole-1-carboxylic acid (pyrazin-2-ylmethyl)-amide] was run?
**A.** Its IC50 is 1 to 10 nM.

**Q.** Which IC50 does the source give for `Cc1c(-c2ccnn2-c2ccc(C#N)cc2)n(CCCN(C)C)c(=O)n1-c1cccc(C(F)(F)F)c1` [Example 30, 4-{5-[3-(3-Dimethylamino-propyl)-5-methyl-2-oxo-1-(3-trifluoromethylphenyl)-2,3-dihydro-1H-imidazol-4-yl]-pyrazol-1-yl}-benzonitrile] here?
**A.** Its IC50 is 1 to 10 nM.

**Q.** For `Cc1c(-c2ccn(-c3ccc(C#N)cc3Br)n2)n(C(=O)NC2CCCC2)c(=O)n1-c1cccc(C(F)(F)F)c1` [Example 57, 5-[1-(2-Bromo-4-cyano-phenyl)-1H-pyrazol-3-yl]-4-methyl-2-oxo-3-(3-trifluoromethyl-phenyl)-2,3-dihydro-imidazole-1-carboxylic acid cyclopentylamide], which IC50 is on record?
**A.** Its IC50 is 10 to 50 nM.

**Q.** `Cc1c(-c2ccnn2-c2ccc(C#N)cc2Br)n(C(=O)NC2CCCC2)c(=O)n1-c1cccc(C(F)(F)F)c1` [Example 56, 5-[2-(2-Bromo-4-cyano-phenyl)-2H-pyrazol-3-yl]-4-methyl-2-oxo-3-(3-trifluoromethyl-phenyl)-2,3-dihydro-imidazole-1-carboxylic acid cyclopentylamide] was tested. Which IC50 did it give?
**A.** The IC50 was 1 to 10 nM.

**Q.** How did the IC50 turn out when `Cc1c(-c2ccnn2-c2ccc(C#N)cc2)n(CCCS(C)(=O)=O)c(=O)n1-c1cccc(C(F)(F)F)c1` [Example 2, 4-(5-{5-Methyl-3-[3-(methylsulfonyl)propyl]-2-oxo-1-[3-(trifluoromethyl)phenyl]-2,3-dihydro-1H-imidazol-4-yl}-1H-pyrazol-1-yl)benzonitrile] was run?
**A.** Its IC50 is 1 to 10 nM.

**Q.** How did the IC50 turn out when `Cc1c(-c2ccnn2-c2ccc(C#N)cc2)n(CC(=O)N(C)C)c(=O)n1-c1cccc(C(F)(F)F)c1` [Example 37, 2-[5-[2-(4-Cyano-phenyl)-2H-pyrazol-3-yl]-4-methyl-2-oxo-3-(3-trifluoromethyl-phenyl)-2,3-dihydro-imidazol-1-yl]-N,N-dimethyl-acetamide] was run?
**A.** Its IC50 is 1 to 10 nM.

**Q.** For `Cc1c(-c2ccnn2-c2ccc(C#N)cc2)n(CCN(C)C)c(=O)n1-c1cccc(C(F)(F)F)c1` [Example 29, 4-{5-[3-(2-Dimethylamino-ethyl)-5-methyl-2-oxo-1-(3-trifluoromethylphenyl)-2,3-dihydro-1H-imidazol-4-yl]-pyrazol-1-yl}-benzonitrile], which IC50 is on record?
**A.** The IC50 was 1 to 10 nM.

**Q.** Which IC50 does the source give for `Cc1c(-c2ccnn2-c2ccc(C#N)cc2F)n(C(=O)NC2CCCC2)c(=O)n1-c1cccc(C(F)(F)F)c1` [Example 58, 5-[2-(4-Cyano-2-fluoro-phenyl)-2H-pyrazol-3-yl]-4-methyl-2-oxo-3-(3-trifluoromethyl-phenyl)-2,3-dihydro-imidazole-1-carboxylic acid cyclopentylamide] here?
**A.** Its IC50 is < 1 nM.

**Q.** How did the IC50 turn out when `Cc1c(-c2ccnn2-c2ccc(C#N)cc2)n(C(=O)NCc2cccnc2)c(=O)n1-c1cccc(C(F)(F)F)c1` [Example 50, 5-[2-(4-Cyano-phenyl)-2H-pyrazol-3-yl]-4-methyl-2-oxo-3-(3-trifluoromethyl-phenyl)-2,3-dihydro-imidazole-1-carboxylic acid (pyridin-3-ylmethyl)-amide] was run?
**A.** The IC50 was 1 to 10 nM.

**Q.** With `Cc1c(-c2ccnn2-c2ccc(C#N)cc2)n(C(=O)NCc2ccccn2)c(=O)n1-c1cccc(C(F)(F)F)c1` [Example 49, 5-[2-(4-Cyano-phenyl)-2H-pyrazol-3-yl]-4-methyl-2-oxo-3-(3-trifluoromethyl-phenyl)-2,3-dihydro-imidazole-1-carboxylic acid (pyridin-2-ylmethyl)-amide] as the compound, how does the IC50 read?
**A.** The IC50 was 1 to 10 nM.

**Q.** `Cc1c(-c2ccnn2-c2ccc(C#N)cc2)n(C(=O)NC2CCOC2)c(=O)n1-c1cccc(C(F)(F)F)c1` (stereo not shown) [Example 14, 5-[1-(4-Cyanophenyl)-1H-pyrazol-5-yl]-4-methyl-2-oxo-N-(tetrahydrofuran-3-yl)-3-[3-(trifluoromethyl)phenyl]-2,3-dihydro-1H-imidazole-1-carboxamide] was tested. Which IC50 did it give?
**A.** Its IC50 is < 1 nM.

**Q.** With `CCNC(=O)n1c(-c2ccnn2-c2ccc(C#N)cc2)c(C)n(-c2cccc(C(F)(F)F)c2)c1=O` [Example 6, 5-[1-(4-Cyanophenyl)-1H-pyrazol-5-yl]-N-ethyl-4-methyl-2-oxo-3-[3-(trifluoromethyl)phenyl]-2,3-dihydro-1H-imidazole-1-carboxamide] as the compound, how does the IC50 read?
**A.** Its IC50 is < 1 nM.

**Q.** With `Cc1c(-c2ccnn2-c2ccc(C#N)cc2)n(CC(=O)N(C)C2CCC2)c(=O)n1-c1cccc(C(F)(F)F)c1` [Example 40, 2-[5-[2-(4-Cyano-phenyl)-2H-pyrazol-3-yl]-4-methyl-2-oxo-3-(3-trifluoromethyl-phenyl)-2,3-dihydro-imidazol-1-yl]-N-cyclobutyl-N-methyl-acetamide] as the compound, how does the IC50 read?
**A.** Its IC50 is 1 to 10 nM.
